Results taken from patent publication US6235754A, “Methods and compositions for protecting animals and humans against attack and infestation by arthropod and helminth parasites” (American Cyanamid Company, priority 1999, dated 2001).
Read-outs that look alike come from different tables or passages of the source.

Tested on: Ctenocephalides felis (cat flea)
Assay: Contact activity against the adult cat flea (Table I)
Format: in vivo
Settings: topical
Description: This test is designed to evaluate the contact activity of test compounds against the adult cat flea. Test compounds are dissolved in 100% acetone to 300, 100, 10 and 1 ppm. 100 μL of each of these dilutions is added to the bottom of a 20 mL glass scintillation vial with a pipettor. The vial is allowed to dry under a fume hood for 15 minutes. The bottom of the vial measures 4.909 cm^2. The amount of test compound applied by each dilution equals 6.2, 2.0, 0.2 and 0.02 μg/cm^2, respectively. Newly emerged adult cat fleas are anesthetized with CO2 to immobilize, and are counted into the scintillation vials with forceps. Five fleas are placed in each vial. These tests are done in replicates of two or three so that there are 10 to 15 fleas per rate/compound. Mortality readings are taken 4 and 24 hours after placing the fleas in the vials. […] Percent mortality is then calculated for each treatment.

[1] = 4 h, read-out: 4 Hour % Mortality
[2] = 24 h, read-out: 24 Hour % Mortality

Structure (SMILES) | mortality at 0.02 µg/cm2 [1] | mortality at 0.2 µg/cm2 [1] | mortality at 2 µg/cm2 [1] | mortality at 6.2 µg/cm2 [1] | mortality at 0.02 µg/cm2 [2] | mortality at 0.2 µg/cm2 [2] | mortality at 2 µg/cm2 [2] | mortality at 6.2 µg/cm2 [2]
CC(C)(C(F)=CCc1cccc(Oc2ccccc2)c1)c1ccc(Cl)cc1 [Compound 1, 4-(p-Chlorophenyl)-3-fluoro-4-methyl-1-(m-phenoxyphenyl)-2-pentene, (Z)- and (E)-(95:5)] | 5% | 5% | 10% | 0% | 10% | 20% | 35% | 53%
F/C(=C\Cc1cccc(Oc2ccccc2)c1)C(c1ccc(F)cc1)C1CC1 (racemic) [Compound 15, 1-[2-Fluoro-1-(p-fluorophenyl)-4-(m-phenoxyphenyl)-2-butenyl]cyclopropane, (R,S)-(Z)-] |  | 44% | 80% | 100% |  | 78% | 100% | 100%
CCOc1ccc(C(/C(F)=C/Cc2cccc(Oc3ccccc3)c2)C(C)C)cc1 (stereo not shown) [Compound 11, 4-(p-Ethoxyphenyl)-3-fluoro-5-methyl-1-(m-phenoxyphenyl)-2-hexene, (Z)-] | 0% | 10% | 30% | 60% | 10% | 40% | 90% | 90%
F/C(=C\Cc1ccc(F)c(Oc2ccccc2)c1)C1(c2ccc(Cl)cc2)CC1 [Compound 4, 1-(p-Chlorophenyl)-1-[1-fluoro-3-(4-fluoro-3-phenoxyphenyl)propenyl]cyclopropane, (Z)-] | 5% | 7% | 0% | 3% | 16% | 14% | 21% | 28%
CCOc1ccc(C(/C(F)=C/Cc2ccc(F)c(Oc3ccc(F)cc3)c2)C2CC2)cc1 (racemic) [Compound 16, 1-{1-(p-Ethoxyphenyl)-2-fluoro-4-[4-fluoro-3-(p-fluorophenoxy)phenyl]-2-butenyl}cyclopropane, (R,S)-(Z)-] | 0% | 20% | 71% | 100% | 60% | 50% | 100% | 100%
CC(C)(C)C(/C(F)=C/Cc1cccc(Oc2ccccc2)c1)c1ccc(Cl)cc1 (stereo not shown) [Compound 9, 4-(p-Chlorophenyl)-3-fluoro-5-methyl-1-(m-phenoxyphenyl)-5-methyl-2-hexene, (Z)-] | 0% | 0% | 30% | 20% | 40% | 70% | 70% | 80%
CC(C)C(/C(F)=C/Cc1cccc(Oc2ccccc2)c1)c1ccc(Cl)cc1 (stereo not shown) [Compound 8, 4-(p-Chlorophenyl)-3-fluoro-5-methyl-1-(m-phenoxyphenyl)-2-hexene, (Z)-] | 0% | 0% | 0% | 0% | 10% | 0% | 0% | 20%
CC(C)C(/C(F)=C/Cc1ccc(F)c(Oc2ccccc2)c1)c1ccc(Cl)cc1 (stereo not shown) [Compound 7, 4-(p-Chlorophenyl)-3-fluoro-1-(4-fluoro-3-phenoxyphenyl)-5-methyl-2-hexene, (Z)-] | 0% | 0% | 0% | 0% | 10% | 0% | 0% | 100%
F/C(=C\Cc1cccc(Oc2ccc(F)cc2)c1)C(c1ccc(Cl)cc1)C1CC1 (stereo not shown) [Compound 13, 1-{1-(p-Chlorophenyl)-2-fluoro-4-[m-(p-fluorophenoxy)phenyl]-2-butenyl}cyclopropane, (Z)-] | 0% | 0% | 5% | 10% | 5% | 33% | 67% | 95%
CCOc1ccc(C(/C(F)=C/Cc2cccc(Oc3ccc(F)cc3)c2)C(C)C)cc1 (stereo not shown) [Compound 12, 4-(p-Ethoxyphenyl)-3-fluoro-1-[m-(p-fluorophenoxy)phenyl]-5-methyl-2-hexene, (Z)-] | 0% | 0% | 10% | 33% | 0% | 10% | 30% | 78%
CC(C)(/C(F)=C/Cc1ccc(F)c(Oc2ccccc2)c1)c1ccc(Cl)cc1 [Compound 2, 4-(p-Chlorophenyl)-3-fluoro-1-(4-fluoro-3-phenoxyphenyl)-4-methyl-2-pentene, (Z)-] | 5% | 0% | 0% | 22% | 10% | 32% | 58% | 100%
F/C(=C\Cc1cccc(Oc2ccccc2)c1)C(c1ccc(Cl)cc1)C1CC1 (stereo not shown) [Compound 6, 1-[1-(p-Chlorophenyl)-2-fluoro-4-(m-phenoxyphenyl)-2-butenyl]cyclopropane, (Z)-] | 0% | 0% | 56% | 80% | 8% | 28% | 88% | 100%
F/C(=C\Cc1cccc(Oc2ccccc2)c1)C1(c2ccc(Cl)cc2)CC1 [Compound 3, 1-(p-Chlorophenyl)-1-[1-fluoro-3-(m-phenoxyphenyl)propenyl]cyclopropane, (Z)-] | 5% | 0% | 7% | 0% | 5% | 7% | 17% | 13%
CCOc1ccc(C(/C(F)=C/Cc2cccc(Oc3ccccc3)c2)C2CC2)cc1 (racemic) [Compound 14, 1-[1-(p-Ethoxyphenyl)-2-fluoro-4-(m-phenoxyphenyl)-2-butenyl]cyclopropane, (R,S)-(Z)-] | 10% | 20% | 20% | 50% | 30% | 60% | 100% | 100%
CC(C)C(/C(F)=C(\F)Cc1ccc(F)c(Oc2ccccc2)c1)c1ccc(OC(F)(F)F)cc1 (stereo not shown) [Compound 17, 2,3-Difluoro-1-(4-fluoro-3-phenoxyphenyl)-5-methyl-4-[p-(trifluoromethoxy)phenyl]-2-hexene, (E)-] | 0% | 10% | 10% | 10% | 20% | 40% | 50% | 90%
